Experiments:
[1] = system: L. monocytogenes; test: L. monocytogenes arousal by serial dilutions in PBS, growth on antibiotic agar; assay type: cell-based; conditions: PBS pH 7.3
[2] = system: spores of the genera Bacillus and Clostridium; conditions: substance added to the buffer; neutral suspensions heated at 65° C. for 20 minutes; cited from earlier work
[3] = system: L. monocytogenes; test: Dialysis plus dilution of dormant L. monocytogenes, growth in presence of antibiotic; assay type: cell-based; conditions: 18 hrs. adjustment period
Experimental: An aliqout of culture was dialyzed against 250 volumes of PBS, pH 7.3 at 37° C. with stirring for 40 min. After an adjustment period of 18 hrs., the retentate was diluted serially 1:5 in PBS, pH 7.3, and streaked on agar.

[4] = system: L. caseii; test: Dialysis plus dilution of dormant L. caseii, growth in presence of antibiotic; assay type: cell-based; conditions: for Growth in presence of 60 IU Amp/mL: dialysis, 18 hrs. adjustment period
[5] = system: L. caseii; test: Growth of dormant L. caseii on agar with antibiotic after sequential extractions; assay type: cell-based; conditions: for Growth in presence of 60 IU/mL ampicillin: PBS pH 7.3
Experimental: (§1) A culture containing 100% dormant bacteria was microfuged and the supernatant replaced with an equal volume of PBS, pH 7.3 and incubated at 37° C. After 20 minutes, the pellet was again recovered by centrifugation and resuspended in fresh PBS.
A 2 year old dormant broth culture of L. caseii was centrifuged and the supernatant replaced with an equal volume of Dulbeccos' PBS, 1× or 4× at pH 7.3, or water for 20 min. followed by different periods of adjustment at 37° C.

[6] = system: L. monocytogenes; test: Antibiotic tolerance of vegetative and aroused dormant L. monocytogenes (classification); assay type: cell-based; conditions: both native vegetative and aroused dormant cells
[7] = system: P. aeruginosa; test: Growth of duplex culture of P. aeruginosa with antibiotic after sequential extractions; assay type: cell-based; conditions: Dulbecco's PBS pH 7.3
Experimental: Separate cultures containing both dormant and vegetative cells of P. aeruginosa or E. coli were centrifuged and the pellets resuspended in an equal amount of Dulbecco's PBS pH 7.3 for serial extractions of 20 min. followed by different periods of adjustment at 37° C.

[8] = system: L. plantarum ATCC 14917; test: Dialysis of dormant L. plantarum ATCC 14917, tolerance to antibiotic; assay type: cell-based; conditions: retentate after four changes of 250 volumes of PBS, 44 hrs. of dialysis, no adjustment period
[9] = system: L. monocytogenes; test: Growth (CFUs/mL or grow-out hrs.) of dormant L. monocytogenes on agar with antibiotic after sequential PBS extractions; assay type: cell-based; conditions: for Growth in presence of ampicillin: PBS pH 7.3
Experimental: as §1
A 4 year old dormant broth culture of L. monocytogenes was centrifuged and the supernatant replaced with an equal volume of Dulbecco's PBS, 1×, 4×, or 10×, pH 7.3 or 6.1 for 10, 20, or 40 min. extraction periods, followed by different periods of adjustment at 37° C. This was repeated and the pellets held for various times in buffer (adjustment period) before plating on agar. Inoculated agars were held at 37° C. for various lengths of time (grow-out period).

[10] = system: S. aureus; test: Vancomycin tolerance of aroused dormant and vegetative S. aureus; assay type: cell-based; conditions: aroused dormant forms after heat-killing of vegetative forms
Description: Dormant cells of S. aureus could be enumerated and classified in the presence of their vegetative forms by heat-killing the sensitive vegetative forms while preserving the more resistant dormant forms. […] Before heating, 4×10^7 CFUs/mL were viable, after heating, no viable cells were detected until the dormant cells were aroused by osmolal downshift gradients.

[11] = dilution after adjustment 1:125
[12] = dilution after adjustment: None

CN(C)[C@@H]1C(O)=C(C(N)=O)C(=O)[C@@]2(O)C(O)=C3C(=O)c4c(O)cccc4[C@@](C)(O)[C@H]3C[C@@H]12 [tetracycline]
144 h: Periods of adjustment required for growth on: 30 μg TC ([1]; serial dilutions 1:10) | Periods of adjustment required for growth on: 30 μg TC ([1]; serial dilutions 1:100) | Periods of adjustment required for growth on: 30 μg TC ([1]; serial dilutions 1:1000)

Nc1ncnc2c1ncn2[C@@H]1O[C@H](CO)[C@@H](O)[C@H]1O [adenosine]
100%: spores that germinate [2]

N[C@@H](Cc1ccc(O)cc1)C(=O)O [L-tyrosine]
100%: spores that germinate [2]

C[C@H](N)C(=O)O [L-alanine]
100%: spores that germinate [2]

CC1(C)S[C@@H]2[C@H](NC(=O)[C@H](N)c3ccccc3)C(=O)N2[C@H]1C(=O)O [ampicillin]
10^5 CFUs/mL: Growth in presence of 60 IU Amp/mL ([3]; dilution after adjustment 1:25) | Growth in presence of 60 IU Amp/mL [3, 11] | Growth in presence of ampicillin ([9]; 4th 20 min. extraction) | Growth in presence of ampicillin ([9]; 5th 20 min. extraction) | Growth in presence of ampicillin ([9]; 6th 20 min. extraction)
72 h: Growth in presence of 60 IU amp/mL ([7]; 3 × 20 min., adjustment time 24 hrs.)
24 h: Growth in presence of 60 IU amp/mL ([9]; Dulbecco's 4X PBS pH 7.3, 3 × 20 min., adjustment time 48 hrs.) | Growth in presence of 60 IU amp/mL ([9]; Dulbecco's 4X PBS pH 7.3, 3 × 20 min., adjustment time 72 hrs.) | Growth in presence of 60 IU amp/mL ([9]; Dulbecco's 10X PBS pH 7.3, 3 × 20 min., adjustment time 48 hrs.) | Growth in presence of 60 IU amp/mL ([9]; Dulbecco's 10X PBS pH 7.3, 3 × 20 min., adjustment time 72 hrs.) | Growth in presence of 60 IU amp/mL ([9]; Dulbecco's PBS pH 6.1, 5 × 20 min., adjustment time 120 hrs.) | Growth in presence of 60 IU amp/mL ([9]; Dulbecco's PBS pH 6.1, 7 × 20 min., adjustment time 96 hrs.) | Growth in presence of 60 IU amp/mL ([9]; Dulbecco's PBS pH 7.3, 3 × 40 min., adjustment time 96 hrs.) | Growth in presence of 60 IU amp/mL ([9]; Dulbecco's PBS pH 7.3, 5 × 10 min., adjustment time 96 hrs.)
not tolerant: Tolerance to ampicillin ([4]; L. caseii ATCC 393 aroused by dialysis pH 7.3, dilutions 1:5 and 1:5, adjustment period 124 hours at 37° C.) | Tolerance to ampicillin [8]
0 CFUs/mL: Growth in presence of 60 IU Amp/mL ([4]; dilution after adjustment 1:5) | Growth in presence of 60 IU Amp/mL ([4]; dilution after adjustment 1:25) | Growth in presence of 60 IU Amp/mL [4, 11] | Growth in presence of 60 IU Amp/mL [4, 12] | Growth in presence of 60 IU/mL ampicillin ([5]; 1st-5th 20 min. extraction) | Growth in presence of 60 IU/mL ampicillin ([5]; 6th 20 min. + 72 hrs. @ 37° C.) | Growth in presence of 60 IU/mL ampicillin ([5]; 6th 20 min. + 96 hrs. @ 37° C.) | Growth in presence of 60 IU/mL ampicillin ([5]; Control (no extraction)) | Growth in presence of ampicillin ([9]; Control (no extraction))
10^4 CFUs/mL: Growth in presence of 60 IU Amp/mL ([3]; dilution after adjustment 1:5) | Growth in presence of ampicillin ([9]; 1st 20 min. extraction) | Growth in presence of ampicillin ([9]; 2nd 20 min. extraction) | Growth in presence of ampicillin ([9]; 3rd 20 min. extraction)
48 h: Growth in presence of 60 IU amp/mL ([5]; L. caseii ATCC 393, Dulbecco's PBS pH 7.3, 7 × 20 min., adjustment time 144 hrs.) | Growth in presence of 60 IU amp/mL ([7]; 6 × 20 min., adjustment time 0 hrs.) | Growth in presence of 60 IU amp/mL ([9]; Dulbecco's PBS pH 7.3, 1 × 20 min., adjustment time 0 hrs.) | Growth in presence of 60 IU amp/mL ([9]; Dulbecco's PBS pH 7.3, 3 × 20 min., adjustment time 0 hrs.) | Growth in presence of 60 IU amp/mL ([9]; Dulbecco's PBS pH 7.3, 3 × 20 min., adjustment time 48 hrs.) | Growth in presence of 60 IU amp/mL ([9]; Dulbecco's PBS pH 7.3, 3 × 20 min., adjustment time 72 hrs.) | Growth in presence of 60 IU amp/mL ([9]; Dulbecco's PBS pH 7.3, 6 × 10 min., adjustment time 0 hrs.) | Growth in presence of 60 IU amp/mL ([9]; Dulbecco's PBS pH 7.3, 6 × 20 min., adjustment time 0 hrs.) | Growth in presence of 60 IU amp/mL ([9]; Dulbecco's PBS pH 7.3, 6 × 20 min., adjustment time 48 hrs.) | Growth in presence of 60 IU amp/mL ([9]; Dulbecco's PBS pH 7.3, 6 × 20 min., adjustment time 72 hrs.) | Growth in presence of 60 IU amp/mL ([9]; Dulbecco's PBS pH 7.3, 7 × 40 min., adjustment time 96 hrs.) | Growth in presence of 60 IU amp/mL ([9]; Dulbecco's PBS pH 7.3, 9 × 20 min., adjustment time 0 hrs.) | Growth in presence of 60 IU amp/mL ([9]; Dulbecco's PBS pH 7.3, 9 × 20 min., adjustment time 48 hrs.) | Growth in presence of 60 IU amp/mL ([9]; Dulbecco's PBS pH 7.3, 9 × 20 min., adjustment time 72 hrs.)
tolerant: Tolerance to 60 IU of ampicillin per mL [6]
144 h: Periods of adjustment required for growth on: 60 IU Amp ([1]; serial dilutions 1:10) | Periods of adjustment required for growth on: 60 IU Amp ([1]; serial dilutions 1:100) | Periods of adjustment required for growth on: 60 IU Amp ([1]; serial dilutions 1:125) | Periods of adjustment required for growth on: 60 IU Amp ([1]; serial dilutions 1:1000)
10^3 CFUs/mL: Growth in presence of 60 IU Amp/mL [3, 12]

CN[C@H](CC(C)C)C(=O)N[C@H]1C(=O)N[C@@H](CC(N)=O)C(=O)N[C@H]2C(=O)N[C@H]3C(=O)N[C@H](C(=O)N[C@H](C(=O)O)c4cc(O)cc(O)c4-c4cc3ccc4O)[C@H](O)c3ccc(c(Cl)c3)Oc3cc2cc(c3O[C@@H]2O[C@H](CO)[C@@H](O)[C@H](O)[C@H]2O[C@H]2C[C@](C)(N)[C@H](O)[C@H](C)O2)Oc2ccc(cc2Cl)[C@H]1O [vancomycin]
showed tolerance: Tolerance to 30 μg vancomycin/mL [10]

From US6589771B1, “Methods for arousing dormant bacteria” (Immunom Technologies, Inc., priority 1999, dated 2003)
